The target in assay [1] is Matrix metalloproteinase-9 (Homo sapiens, UniProt P14780). The assay is described as follows: biochemical. It counts as cell-based.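 Note: inhibition of isolated MMP-9 enzyme activity toward a synthetic peptide substrate, from the DrugMatrix protease screening panel; in other assays of this panel Not Active means under 50% inhibition at 10 µM.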
Assay [2] has as its target Beta-3 adrenergic receptor (Homo sapiens, UniProt P13945). The experiment in a line: DRUGMATRIX: Adrenergic beta3 radioligand binding (ligand: [125I] Cyanopindolol). Conditions: Not Active = under 50% inhibition at 10 µM. In kind it is cell membranes, HEK293, Membrane.
Assay [3] has as its target Sigma non-opioid intracellular receptor 1 (Homo sapiens, UniProt Q99720). The assay is described as follows: DRUGMATRIX: Sigma1 radioligand binding (ligand: [3H] Haloperidol). The conditions noted are these: Not Active = under 50% inhibition at 10 µM; for Ki: read-out: Ki. In kind it is cell membranes, Jurkat, Membrane.
The target in assay [4] is Sodium-dependent noradrenaline transporter (Homo sapiens, UniProt P23975). The assay is described as follows: DRUGMATRIX: Norepinephrine Transporter radioligand binding (ligand: [125I] RTI-55). The conditions noted are these: Not Active = under 50% inhibition at 10 µM. In kind it is cell membranes, MDCK, Membrane.
A further assay has as its target D(1A) dopamine receptor (Homo sapiens, UniProt P21728). The experiment in a line: DRUGMATRIX: Dopamine D1 radioligand binding (ligand: [3H] SCH-23390). It counts as cell membranes, CHO, Membrane. The conditions noted are these: cho; Not Active = under 50% inhibition at 10 µM.

The structures appear in SMILES notation.

Sequence of Sigma non-opioid intracellular receptor 1 (Q99720 whole entry): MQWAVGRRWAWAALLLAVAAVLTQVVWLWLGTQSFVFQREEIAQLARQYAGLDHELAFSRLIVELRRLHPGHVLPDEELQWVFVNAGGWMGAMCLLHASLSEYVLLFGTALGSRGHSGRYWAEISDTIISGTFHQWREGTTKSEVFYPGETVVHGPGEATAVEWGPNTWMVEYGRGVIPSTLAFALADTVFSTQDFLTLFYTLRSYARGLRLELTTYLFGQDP
Sequence of Matrix metalloproteinase-9 (P14780 whole entry): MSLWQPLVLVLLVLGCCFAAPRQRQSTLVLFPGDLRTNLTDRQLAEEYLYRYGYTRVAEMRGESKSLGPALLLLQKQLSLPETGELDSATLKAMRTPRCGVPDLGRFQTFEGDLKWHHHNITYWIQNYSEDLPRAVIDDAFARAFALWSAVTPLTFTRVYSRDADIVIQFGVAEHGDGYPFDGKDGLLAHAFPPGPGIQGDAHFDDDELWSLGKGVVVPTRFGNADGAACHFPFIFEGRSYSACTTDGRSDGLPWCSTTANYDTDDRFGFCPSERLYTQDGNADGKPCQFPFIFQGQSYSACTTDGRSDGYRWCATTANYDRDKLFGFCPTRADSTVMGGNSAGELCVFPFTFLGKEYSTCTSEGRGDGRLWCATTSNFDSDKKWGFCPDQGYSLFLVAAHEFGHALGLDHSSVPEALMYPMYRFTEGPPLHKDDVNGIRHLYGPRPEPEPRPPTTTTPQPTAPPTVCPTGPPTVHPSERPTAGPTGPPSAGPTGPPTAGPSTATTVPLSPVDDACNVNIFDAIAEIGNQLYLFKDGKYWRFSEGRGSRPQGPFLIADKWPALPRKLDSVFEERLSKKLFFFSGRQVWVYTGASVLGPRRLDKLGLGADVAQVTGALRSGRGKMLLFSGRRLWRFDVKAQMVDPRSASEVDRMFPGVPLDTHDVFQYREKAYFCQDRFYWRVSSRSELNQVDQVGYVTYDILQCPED
Sequence of Sodium-dependent noradrenaline transporter (P23975 whole entry): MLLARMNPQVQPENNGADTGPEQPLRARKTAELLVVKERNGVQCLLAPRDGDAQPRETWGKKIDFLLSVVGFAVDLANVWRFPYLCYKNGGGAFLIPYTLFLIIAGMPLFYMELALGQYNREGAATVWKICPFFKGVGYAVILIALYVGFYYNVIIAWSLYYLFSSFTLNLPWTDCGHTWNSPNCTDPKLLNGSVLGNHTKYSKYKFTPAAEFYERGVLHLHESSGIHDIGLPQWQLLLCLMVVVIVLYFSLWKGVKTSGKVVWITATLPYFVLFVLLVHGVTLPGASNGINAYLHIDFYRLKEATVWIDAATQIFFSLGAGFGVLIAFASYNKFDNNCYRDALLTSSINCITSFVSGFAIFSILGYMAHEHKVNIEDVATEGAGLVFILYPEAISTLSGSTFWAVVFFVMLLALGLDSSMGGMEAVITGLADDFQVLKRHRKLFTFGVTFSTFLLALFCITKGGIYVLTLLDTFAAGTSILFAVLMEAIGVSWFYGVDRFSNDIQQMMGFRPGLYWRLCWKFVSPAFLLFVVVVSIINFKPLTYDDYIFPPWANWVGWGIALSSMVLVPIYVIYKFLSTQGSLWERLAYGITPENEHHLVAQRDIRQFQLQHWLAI
Sequence of Beta-3 adrenergic receptor (P13945 whole entry): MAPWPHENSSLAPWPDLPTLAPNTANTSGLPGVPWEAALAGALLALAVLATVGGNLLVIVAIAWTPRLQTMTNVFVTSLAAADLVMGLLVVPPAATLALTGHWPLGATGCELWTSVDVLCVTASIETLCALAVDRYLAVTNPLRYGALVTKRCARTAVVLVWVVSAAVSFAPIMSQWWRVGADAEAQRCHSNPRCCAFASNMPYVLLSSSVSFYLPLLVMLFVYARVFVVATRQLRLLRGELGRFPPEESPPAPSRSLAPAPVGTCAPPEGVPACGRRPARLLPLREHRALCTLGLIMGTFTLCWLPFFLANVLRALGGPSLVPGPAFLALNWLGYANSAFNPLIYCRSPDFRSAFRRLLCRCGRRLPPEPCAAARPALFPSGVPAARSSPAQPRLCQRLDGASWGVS
Sequence of D(1A) dopamine receptor (P21728 whole entry): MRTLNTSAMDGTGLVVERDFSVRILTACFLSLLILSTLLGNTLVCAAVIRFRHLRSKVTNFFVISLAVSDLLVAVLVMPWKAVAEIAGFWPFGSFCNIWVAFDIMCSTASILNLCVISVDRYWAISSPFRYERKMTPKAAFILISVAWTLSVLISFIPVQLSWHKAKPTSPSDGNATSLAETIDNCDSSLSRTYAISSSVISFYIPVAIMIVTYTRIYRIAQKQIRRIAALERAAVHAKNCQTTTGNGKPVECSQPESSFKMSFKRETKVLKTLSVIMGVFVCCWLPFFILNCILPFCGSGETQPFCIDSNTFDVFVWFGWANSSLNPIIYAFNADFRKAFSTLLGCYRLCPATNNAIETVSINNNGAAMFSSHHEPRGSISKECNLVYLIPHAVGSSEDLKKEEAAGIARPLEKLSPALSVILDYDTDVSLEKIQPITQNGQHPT

Take `CC(C)(C)NC(=O)[C@@H]1C[C@@H]2CCCC[C@@H]2CN1C[C@@H](O)[C@H](Cc1ccccc1)NC(=O)[C@H](CC(N)=O)NC(=O)c1ccc2ccccc2n1`: the half-maximal inhibitory concentration (IC50) result (in assay [1]; in assay [2] (hek293); in assay [3] (jurkat); in assay [4] (mdck); at D(1A) dopamine receptor) was “Not Active” throughout.

As for `CC(=O)[C@@]1(O)CC[C@H]2[C@@H]3C[C@H](C)C4=CC(=O)CC[C@]4(C)[C@H]3CC[C@@]21C`, the half-inhibitory concentration (IC50) result (in assay [1]; in assay [2] (hek293); in assay [3] (jurkat); in assay [4] (mdck); on D(1A) dopamine receptor) was “Not Active” in each case.

On to `N[C@@H](Cc1ccc(N(CCCl)CCCl)cc1)C(=O)O`, for which the IC50 result (in assay [1]; in assay [2] (hek293); in assay [3] (jurkat); in assay [4] (mdck); on D(1A) dopamine receptor) was “Not Active” throughout.

For `CCCCc1oc2ccccc2c1C(=O)c1cc(I)c(OCCN(CC)CC)c(I)c1` [AMIODARONE], the half-inhibitory concentration (IC50) entry in assay [1] is “Not Active”.

With `OCCN(CCO)c1nc(N2CCCCC2)c2nc(N(CCO)CCO)nc(N3CCCCC3)c2n1` [DIPYRIDAMOLE], the IC50 entry (in assay [1]; in assay [2] (hek293); in assay [3] (jurkat); in assay [4] (mdck); on D(1A) dopamine receptor) was “Not Active” each time.

On to `Cc1oncc1C(=O)Nc1ccc(C(F)(F)F)cc1` [LEFLUNOMIDE], for which the IC50 entry (in assay [1]; in assay [2] (hek293); in assay [3] (jurkat); on D(1A) dopamine receptor) was “Not Active” throughout.

With `c1ccc([C@H]2CN3CCSC3=N2)cc1` [LEVAMISOLE], the half-inhibitory concentration (IC50) result (in assay [1]; in assay [2] (hek293); in assay [3] (jurkat); in assay [4] (mdck); on D(1A) dopamine receptor) was “Not Active” throughout.

On to `N[C@@H](Cc1ccc(O)c(O)c1)C(=O)O` [LEVODOPA], for which the IC50 result (in assay [1]; in assay [2] (hek293); in assay [3] (jurkat); in assay [4] (mdck); at D(1A) dopamine receptor) was “Not Active” each time.

Take `N[C@@H](Cc1cc(I)c(Oc2ccc(O)c(I)c2)c(I)c1)C(=O)O` [LIOTHYRONINE]: the IC50 result (in assay [1]; in assay [2] (hek293); in assay [3] (jurkat); in assay [4] (mdck); at D(1A) dopamine receptor) was “Not Active” each time.

As for `O=NN(CCCl)C(=O)NC1CCCCC1` [LOMUSTINE], the half-inhibitory concentration (IC50) result (in assay [1]; in assay [2] (hek293); in assay [3] (jurkat); in assay [4] (mdck); at D(1A) dopamine receptor) was “Not Active” throughout.

Regarding `CCOC(=O)N1CCC(=C2c3ccc(Cl)cc3CCc3cccnc32)CC1` [LORATADINE], the concentration for half-maximal inhibition (IC50) entry (in assay [1]; in assay [2] (hek293); in assay [3] (jurkat); in assay [4] (mdck); at D(1A) dopamine receptor) was “Not Active” each time.

On to `Cn1ccnc1S` [METHIMAZOLE], for which the concentration for half-maximal inhibition (IC50) entry (in assay [1]; in assay [2] (hek293); in assay [3] (jurkat); in assay [4] (mdck); on D(1A) dopamine receptor) was “Not Active” each time.

With `CN1CCN(CCCN2c3ccccc3Sc3ccc(Cl)cc32)CC1` [PROCHLORPERAZINE], the concentration for half-maximal inhibition (IC50) result in assay [1] was “Not Active”; in assay [2] (hek293), “Not Active”; in assay [3] (read-out: IC50), 0.054 µM. In assay [3], the inhibition constant (Ki) came to 0.023 µM.

Take `Cc1nc2n(c(=O)c1CCN1CCC(c3noc4cc(F)ccc34)CC1)CCCC2` [RISPERIDONE]: the half-maximal inhibitory concentration (IC50) result in assay [1], in assay [2] (hek293) and in assay [4] (mdck) was “Not Active” each time.

With `CC/C(=C(\c1ccccc1)c1ccc(OCCN(C)C)cc1)c1ccccc1` [TAMOXIFEN], the IC50 result was “Not Active” in assay [1], 7.7 µM in assay [2] (read-out: IC50) and 1.47 µM in assay [4] (read-out: IC50). The inhibition constant Ki in assay [2] (read-out: Ki) was 5.78 µM; in assay [4] (read-out: Ki), 1.46 µM.

On to `CC(C)N1CCN(c2ccc(OCC3COC(Cn4cncn4)(c4ccc(Cl)cc4Cl)O3)cc2)CC1` (stereo not given) [TERCONAZOLE], for which the IC50 result was “Not Active” in assay [1] and 0.508 µM in assay [3] (read-out: IC50). In addition, the inhibition constant Ki in assay [3] was determined as 0.214 µM.

The IC50 is the concentration at which inhibition is half-maximal. In general, Ki refers to a dissociation constant, usually derived from enzyme kinetics or from competition with a known ligand.

The values above are taken from ChEMBL document CHEMBL1909046, “DrugMatrix in vitro pharmacology data”.
